# From patent US6683101B2, “Bicyclic cyclohexylamines and their use as NMDA receptor antagonists” (Warner-Lambert Company, priority 2000, dated 2004)
# Where a name gives a salt, the structure may show the parent alone.
# Test system: not given
# Assay: not given
# Conditions: not given
row,Structure (SMILES),melting point [°C]
1,"O=c1[nH]c2ccc(CCCN[C@H]3CC[C@H](c4ccc(F)cc4)CC3)cc2o1 (as salt: HCl) [Example 2, 6-{3-[trans-4-(4-Fluorophenyl)cyclohexylamino]propyl}-3H-benzoxazol-2-one]",295 to 303
2,"CN(CCN[C@H]1CC[C@H](c2ccccc2)CC1)c1ccc2[nH]c(=O)oc2c1 (as salt: HCl) [Example 3, 6-{Methyl[2-(trans-4-phenylcyclohexylamino)ethyl]amino}-3H-benzoxazol-2-one]",229 to 234
3,"CN(CCCc1ccc2[nH]c(=O)oc2c1)[C@H]1CC[C@H](c2ccc(F)cc2)CC1 (as salt: HCl) [Example 6, 6-(3-{[trans-4-(4-Fluorophenyl)cyclohexyl]methylamino}propyl)-3H-benzoxazol-2-one]",235 to 241
4,"CCN(CCCc1ccc2[nH]c(=O)oc2c1)[C@H]1CC[C@H](c2ccc(F)cc2)CC1 (as salt: HCl) [Example 7, 6-(3-{[trans-4-(4-Fluorophenyl)cyclohexyl]ethylamino}propyl)-3H-benzoxazol-2-one]",99 to 109
5,"O=c1[nH]c2ccc(OCCN[C@H]3CC[C@@H](c4ccccc4)CC3)cc2[nH]1 (as salt: HCl) [Example 8a, 5-[2-(cis-4-Phenylcyclohexylamino)ethoxy]-1,3-dihydrobenzimidazol-2-one]",232 to 237
6,"O=c1[nH]c2ccc(OCCN[C@H]3CC[C@H](c4ccccc4)CC3)cc2[nH]1 (as salt: HCl) [Example 8b, 5-[2-(trans-4-Phenylcyclohexylamino)ethoxy]-1,3-dihydrobenzimidazol-2-one]",315 to 320
7,"O=c1[nH]c2ccc(CCCN[C@H]3CC[C@H](c4ccccc4)CC3)cc2o1 [Example 1, 6-[3-(trans-4-Phenylcyclohexylamino)propyl]-3H-benzoxazol-2-one]",218 to 223

# Biological target: NR2A/NR2B (Rattus norvegicus, UniProt Q00960)
# Sequence (Q00960 27-1482, other chains not shown): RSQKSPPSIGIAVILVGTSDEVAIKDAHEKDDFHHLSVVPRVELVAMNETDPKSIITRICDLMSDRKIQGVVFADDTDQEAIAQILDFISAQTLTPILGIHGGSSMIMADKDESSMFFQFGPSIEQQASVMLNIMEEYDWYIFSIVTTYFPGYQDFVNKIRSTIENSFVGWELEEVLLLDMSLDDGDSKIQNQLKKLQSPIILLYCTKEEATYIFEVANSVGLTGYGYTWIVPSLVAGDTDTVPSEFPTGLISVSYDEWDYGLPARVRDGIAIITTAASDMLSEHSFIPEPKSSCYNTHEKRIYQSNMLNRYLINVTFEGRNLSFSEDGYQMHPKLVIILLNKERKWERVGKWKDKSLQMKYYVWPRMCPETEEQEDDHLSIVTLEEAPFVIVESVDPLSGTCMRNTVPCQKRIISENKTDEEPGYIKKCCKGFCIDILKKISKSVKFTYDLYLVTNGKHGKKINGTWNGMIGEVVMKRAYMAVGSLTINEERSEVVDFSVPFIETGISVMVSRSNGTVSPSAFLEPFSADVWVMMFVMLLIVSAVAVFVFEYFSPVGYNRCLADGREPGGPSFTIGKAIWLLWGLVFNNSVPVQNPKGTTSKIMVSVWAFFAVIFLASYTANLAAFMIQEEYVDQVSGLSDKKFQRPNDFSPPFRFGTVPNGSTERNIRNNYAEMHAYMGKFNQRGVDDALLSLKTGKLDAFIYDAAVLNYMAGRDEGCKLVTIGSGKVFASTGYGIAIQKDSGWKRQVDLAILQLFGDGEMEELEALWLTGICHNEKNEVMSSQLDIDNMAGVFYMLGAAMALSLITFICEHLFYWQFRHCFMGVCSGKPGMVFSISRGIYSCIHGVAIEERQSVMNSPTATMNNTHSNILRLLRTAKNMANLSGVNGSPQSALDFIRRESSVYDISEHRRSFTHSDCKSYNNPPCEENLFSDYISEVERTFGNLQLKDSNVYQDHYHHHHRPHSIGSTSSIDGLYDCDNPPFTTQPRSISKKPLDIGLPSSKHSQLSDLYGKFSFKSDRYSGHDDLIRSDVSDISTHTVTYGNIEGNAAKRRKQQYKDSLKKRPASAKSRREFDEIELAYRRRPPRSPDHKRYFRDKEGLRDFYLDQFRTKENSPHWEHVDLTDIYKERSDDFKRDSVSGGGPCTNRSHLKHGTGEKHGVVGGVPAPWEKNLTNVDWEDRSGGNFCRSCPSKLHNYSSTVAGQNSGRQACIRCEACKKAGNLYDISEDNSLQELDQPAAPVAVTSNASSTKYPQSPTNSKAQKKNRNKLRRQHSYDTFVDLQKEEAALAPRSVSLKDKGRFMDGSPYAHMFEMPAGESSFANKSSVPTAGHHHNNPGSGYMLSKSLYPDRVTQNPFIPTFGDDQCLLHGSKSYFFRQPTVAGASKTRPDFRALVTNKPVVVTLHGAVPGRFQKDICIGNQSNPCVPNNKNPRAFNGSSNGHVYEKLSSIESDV
# Assay: Electrophysiological assay at NMDA receptor subunits expressed in Xenopus oocytes (two-electrode voltage clamp)
# Type: cell-based
# Conditions: cloned rat NMDA receptor subunits in Xenopus oocytes; currents activated by glutamate (100 μM) and glycine (1-100 μM); read-out: NR2A/NR2B Oocyte IC50
# Source text: Electrophysiological Assays at NMDA Receptor Subunits
# Preparation of RNA. cDNA clones encoding the NR1A, NR2A, NR2B, and NR2C rat NMDA receptor subtypes were used (see, Moriyoshi et al. Nature (Lond), 1991;354:31-37; Kutsuwada et al. Nature (Lond), 1992;358:36-41; Monyer et al. Science (Washington, D.C.), 1992;256:1217-1221; Ikeda et al. FEBS Lett., 1992;313:34-38; Ishii et al. J. Biol. Chem., 1993;268:2836-2843 for details of these clones or their mouse homologs). The clones were transformed into appropriate host bacteria, and plasmid preparations were made with conventional DNA purification techniques. A sample of each clone was linearized by restriction enzyme digestion of […] and was synthesized with T3 RNA polymerase. The cRNA was diluted to 400 ng/μL and stored in 1 μL aliquots at −80° C. until injection.
# The Xenopus oocyte expression system. Mature female Xenopus laevis were anaesthetized (20-40 minutes) using 0.15% 3-aminobenzoic acid ethyl ester (MS-222), and 2-4 ovarian lobes were surgically removed. Oocytes at developmental stages IV-VI (Dumont J. N. J. Morphol., 1972;136:153-180) were dissected from the ovary still surrounded by enveloping ovarian tissues. Follicle-enclosed oocytes were micro-injected with 1:1 mixtures of NR1A:NR2A, 2B, or 2C; injecting 1 to 10 ng of RNA encoding each receptor subunit. NR1A encoding RNA was injected alone at ˜20 ng. Oocytes were stored in Barth's medium containing (in mM): NaCl, 88; KCl, 1; CaCl2, 0.41; Ca (NO3)2, 0.33; MgSO4, 0.82; NaHCO3, 2.4; HEPES 5, pH 7.4, with 0.11 mg/ml gentamicin sulphate. While oocytes were still surrounded by enveloping ovarian tissues, the Barth's medium was supplemented with 0.1% bovine serum. […]
# Electrical recordings were made using a conventional two-electrode voltage clamp (Dagan TEV-200) over periods ranging between 3 to 21 days following injection. […] Using oocytes expressing different subunit combinations of NMDA receptor, NMDA currents were activated by co-application of glutamate (100 μM and glycine (1-100 μM). Inhibitory potency of the novel antagonists was assessed on responses elicited by fixed concentrations of glutamate and glycine, by measuring reductions in current induced by progressively increasing concentrations of antagonist. […]
# In which Icontrol is the current evoked by agonists alone, pIC50=−log IC50, IC50 is the concentration of antagonist that produced half maximal inhibition, and n is the slope factor (De Lean et al. Am. J. Physiol., 1978;235:E97-102). For incomplete curves, analysis by fitting was unreliable, and IC50 values were calculated by simple regression over linear portions of the curves (Origin: Microcal Software).
row,Structure (SMILES),IC50 [µM]
1,"O=c1[nH]c2ccc(CCCN[C@H]3CC[C@H](c4ccc(F)cc4)CC3)cc2o1 [Example 2, 6-{3-[trans-4-(4-Fluorophenyl)cyclohexylamino]propyl}-3H-benzoxazol-2-one]",0.12
2,"CN(CCN[C@H]1CC[C@H](c2ccccc2)CC1)c1ccc2[nH]c(=O)oc2c1 [Example 3, 6-{Methyl[2-(trans-4-phenylcyclohexylamino)ethyl]amino}-3H-benzoxazol-2-one]",1
3,"O=c1[nH]c2ccc(OCCN[C@H]3CC[C@@H](c4ccccc4)CC3)cc2[nH]1 [Example 8a, 5-[2-(cis-4-Phenylcyclohexylamino)ethoxy]-1,3-dihydrobenzimidazol-2-one]",0.28
4,"O=c1[nH]c2ccc(OCCN[C@H]3CC[C@H](c4ccccc4)CC3)cc2[nH]1 [Example 8b, 5-[2-(trans-4-Phenylcyclohexylamino)ethoxy]-1,3-dihydrobenzimidazol-2-one]",0.12

# Biological target: T1, NMDA receptor ([3H]ifenprodil binding site) (Rattus norvegicus, UniProt P35439+Q00960)
# T1 construct: tissue Zivic-Miller Laboratories, Inc; host or cells: adult rat forebrain, washed buffy coat membrane fraction
# T1 sequence (Q00960 27-1482, other chains not shown): as above
# Assay: [3H]Ifenprodil binding assay, rat forebrain membranes
# Conditions: adult rat forebrain membranes, 4 nM [3H]-ifenprodil, 2 hours at room temperature, pH 7.4
# Method: [^3H]Ifenprodil Binding Assay Protocol:
# All buffers and reagents used in assay incubations or to dissolve drugs were prepared using water purified through a Milli-Q reverse osmosis system (Millipore Corp, Bedford, Mass.) and treated with UV emissions. Prior to use in the assays, buffers were further filtered through a sterile Corning filtration unit (Corning Glass Works, Corning, N.Y.) containing a 0.2 micron filter. Buffer used to rinse the membranes on the assay filters was prepared with purified water, but was not refiltered and was stored no longer than 5 days. Stock solutions of the drugs (usually 10 mM) were dissolved in 20 mM HEPES-KOH buffer pH 7.4 (assay buffer) with the addition of 1 to 5 μL of glacial AcOH, if needed, to keep them in solution. For eliprodil, the stock solution was buffer with the addition of 10% DMSO. All subsequent dilutions from stock were made in buffer.
# An extensively washed buffy coat membrane fraction was prepared from frozen adult rat forebrains (Zivic-Miller Laboratories, Inc, Zelienople, Pa.) as described previously (Coughenour L. L., Cordon J. J. J. Pharmacol Exp. Ther., 1997;280:584-592) and stored at −80° C. On the day of the assay, pellets were resuspended in 35 mL of assay buffer at pH 7.4 using a Polytron setting 6. After incubation at 37° C. for 30 minutes in a shaking water bath, the homogenate was centrifuged 40,000×g for 10 minutes at 4° C. The pellets were resuspended in fresh buffer and centrifuged 3 more times before final suspension for use in the assay.
# [^3H]Ifenprodil Binding. Triplicate incubations were carried out in a volume of 0.5 mL in 1.3 mL polypropylene tubes (Marsh Biomedical Products Inc, Rochester, N.Y.) for 2 hours at room temperature. Incubations contained test agents, membranes (100-200 μg protein), and 4 nM [^3H]-ifenprodil in 20 mM HEPES-KOH buffer, pH 7.4 (assay buffer). Assays were started by addition of the membranes. Bound radioligand was separated by filtration under reduced pressure Using a Tomtec Mach II, 96-well cell harvester (Tomtec Inc, Orange, Colo.). Filtration was through Whatman GF/B glass fiber filters (Whatman Ltd, Maidstone, England), which had been soaked for at least 15 minutes in 0.3% polyethylenimine and allowed to air dry. The filters were rinsed with 3 mL of ice cold assay buffer within 6 seconds. Air was allowed to pass through the filters for an additional 10 seconds to remove residual moisture. The filter mat was supported on a cold (−20° C.) teflon support, and filters from individual wells were separated and placed in Mini Poly-Q vials (Beckman Instrrnents Inc, Fullerton, Calif.) and filled with 4 mL of scintillation cocktail (Beckman Ready Protein^+). Radioactivity retained on the filter was determined by liquid scintillation spectrophotometry. Nonspecific binding was defined as the binding in the presence of 1 mM ifenprodil. Specific binding was 90%.
# Data analysis. Binding curves were statistically analyzed for a best one or two site competition fit using GraphPad Prism software (GraphPad Software Inc, San Diego, Calif.). The normalized data was fit by nonweighted nonlinear regression to either [formula]
# Control data was entered as 100%, and no parameters were constrained. Inhibition curves were compared by ANOVA with post test comparisons of the logIC50 using Dunnett's multiple comparisons post test or Student's nonpaired, two-tailed t-test (GraphPad InStat software).
row,Structure (SMILES),IC50 [µM]
1,"O=c1[nH]c2ccc(CCCN[C@H]3CC[C@H](c4ccccc4)CC3)cc2o1 [Example 1, 6-[3-(trans-4-Phenylcyclohexylamino)propyl]-3H-benzoxazol-2-one]",0.053
2,"O=c1[nH]c2ccc(SCCN[C@H]3CC[C@H](c4ccccc4)CC3)cc2o1 [Example 4, 6-[2-(trans-4-Phenylcyclohexylamino)ethylsulfanyl]-3H-benzoxazol-2-one]",0.091
3,"CN(CC(O)c1ccc2[nH]c(=O)[nH]c2c1)[C@H]1CC[C@H](c2ccccc2)CC1 (stereo partly drawn) [Example 5, 5-{1-Hydroxy-2-[methyl(trans-4-phenylcyclohexyl)amino]ethyl}-1,3-dihydrobenzimidazol-2-one]",1.76
4,"CN(CCCc1ccc2[nH]c(=O)oc2c1)[C@H]1CC[C@H](c2ccc(F)cc2)CC1 [Example 6, 6-(3-{[trans-4-(4-Fluorophenyl)cyclohexyl]methylamino}propyl)-3H-benzoxazol-2-one]",0.73
5,"CCN(CCCc1ccc2[nH]c(=O)oc2c1)[C@H]1CC[C@H](c2ccc(F)cc2)CC1 [Example 7, 6-(3-{[trans-4-(4-Fluorophenyl)cyclohexyl]ethylamino}propyl)-3H-benzoxazol-2-one]",> 1
